“Also recorded” adds a separate entry of the source.
Test system: wild type human HBV DNA polymerase
Test: In vitro priming activity assay of human HBV DNA polymerase (anti-priming testing, nitrocellulose membrane filtration)
Format: biochemical, human hepatitis B virus (HBV)
Conditions: in vitro translated wild type enzyme in wheat germ lysate; [α-32P] dTTP; corresponding nucleotide replaced with the analog; 30° C. for 30 min; FIG. 6
Protocol: Unless otherwise noted, the polymerase activity assay was conducted in solution containing 100 mM Tris HCl (pH 7.5), 10 mM MgCl2, 30 mM NaCl, 10% glycerol, 4 mM dithiothreitol, 100 μM of each unlabeled deoxyribonucleotide triphosphates (dATP, dCTP and dGTP) and 5 μCi [α-^32P] dTTP. The reactions were incubated at 30° C. for 30 min, after which time a 5 μl aliquot was added to 85 μl of tricine sodium dodecyl sulfate-polyacrylamide gel electrophoresis (SDS-PAGE) sample buffer (Novex, U.S.A.), and 10 μl were analyzed on 10% SDS-PAGE. Following electrophoresis, gels were fixed by soaking in 10% methanol plus 10% acetic acid and dried under vacuum. Dried gels were exposed to X-ray film and signals quantified by laser densitometry.
Screening for inhibitors of human HBV DNA polymerase would provide novel therapeutic agents for HBV infection, as effective inhibition of the polymerase activity will lead to inhibition of HBV viral replication. The simplified activity assay reported in the present invention would allow faster analysis of the inhibitory effects of newly found molecules on DNA polymerase of variant HBV carrying mutations on the major surface antigen. Briefly, a candidate inhibitor was first incubated with the wild type human HBV DNA polymerase that was PCR amplified and in vitro translated as reported in the present invention. The incubation was in the presence of [α-^32P] dTTP and with other conditions identical as above-mentioned. Its inhibitory effect may be determined either by laser densitometry following SDS-PAGE analysis, or by measuring the amount of radiolabeled HBV DNA polymerase bound to nitrocellulose membrane after filtration. […] Further assay on the potential inhibitory effect derived from the above-mentioned assay may then be extended to other systems such as HBV-producing cell lines and transgenic animal model.
Depending on the type of label used, detection of the labeled hybrid HBV DNA polymerase product may be achieved by any appropriate means. Generally this may include a step of separating labeled mononucleotide from labeled human HBV DNA polymerase. […] When the label is a radiolabel as is the case in the simplified assay reported in the present invention, then the amount of radioactivity bound to the filter may be quantified using a plate reading scintillation counter.
In the present invention, the following nucleotide analogs capable of inhibiting the HBV DNA polymerase activity may be assayed for their anti-priming activity. […] The remaining radiolabeled human HBV DNA polymerase bound to the nitrocellulose membrane is then measured quantified using a plate reading scintillation counter.

Row | Structure (SMILES) | anti-priming effect (radiolabeled human HBV DNA polymerase remained on nitrocellulose membrane, as measured by cpm, compared with the control)
1 | Nc1ncnc2c1ncn2[C@H]1CC[C@@H](COP(=O)(O)OP(=O)(O)OP(=O)(O)O)O1 [ddATP] | no obvious anti-priming effect; also recorded: no anti-priming activity is observed
2 | Nc1ccn([C@H]2CC[C@@H](COP(=O)(O)OP(=O)(O)OP(=O)(O)O)O2)c(=O)n1 [ddCTP] | inhibitory effect is observed; also recorded: significantly lower amount
3 | Nc1nc2c(ncn2[C@H]2CC[C@@H](COP(=O)(O)OP(=O)(O)OP(=O)(O)O)O2)c(=O)[nH]1 [ddGTP] | inhibitory effect is observed; also recorded: significantly lower amount
4 | Cc1cn([C@H]2CC[C@@H](COP(=O)(O)OP(=O)(O)OP(=O)(O)O)O2)c(=O)[nH]c1=O [ddTTP] | no obvious anti-priming effect; also recorded: no anti-priming activity is observed
